{
  "source": "EPA's ToxRefDB 2",
  "key": {"rat [1]": {"test_system": "rat", "details": "Combined chronic toxicity/carcinogenicity, wistar, Oral, Feed, dose end: 24 month, group: systemic"}, "mouse [2]": {"test_system": "mouse", "details": "Carcinogenicity, cd1, Oral, Feed, dose end: 18 month, group: systemic"}, "dog [3]": {"test_system": "dog", "details": "Subchronic oral toxicity in nonrodent, beagle, Feed, dose end: 13 week, group: systemic, systemic / clinical chemistry / alanine aminotransferase (alt/sgpt) / alanine aminotransferase (alt/sgpt) + systemic / clinical chemistry / …"}, "dog [4]": {"test_system": "dog", "details": "Chronic toxicity; beagle; Oral; Feed; dose end: 53 week; group: systemic; systemic / pathology microscopic / stomach / [other] + systemic / pathology microscopic / stomach / inflammation"}, "rat [5]": {"test_system": "rat", "details": "Combined chronic toxicity/carcinogenicity, sprague dawley, Oral, Gavage/Intubation, dose end: 104 week, group: systemic"}, "rat [6]": {"test_system": "rat", "details": "Subchronic dermal toxicity, sprague dawley, Topical, dose end: 90 day, group: systemic"}, "rat [7]": {"test_system": "rat", "details": "Subchronic oral toxicity in rodents, sprague dawley, Gavage/Intubation, dose end: 13 week, group: systemic"}, "primate": {"test_system": "primate", "details": "Chronic toxicity, macaque, Oral, Gavage/Intubation, dose end: 52 week, group: systemic"}, "rat [8]": {"test_system": "rat", "details": "Multigenerational reproductive toxicity study, sprague dawley, Oral, Gavage/Intubation, dose end: 2 generation"}, "mouse [9]": {"test_system": "mouse", "details": "Carcinogenicity, cd1, Dermal, Topical, dose end: 18 month, group: systemic"}, "[10]": {"details": "systemic / clinical chemistry / urea nitrogen / urea + systemic / clinical chemistry / phosphorus / phosphorus"}, "[11]": {"details": "systemic / clinical chemistry / chloride / chloride + systemic / hematology / erythrocyte (rbc) count differential / erythrocyte (rbc) + …"}, "[12]": {"details": "systemic / pathology microscopic / skeletal muscle / degeneration"}, "[13]": {"details": "systemic / pathology microscopic / skeletal muscle / degeneration + systemic / in life observation / body weight / body weight + systemic / …"}, "[14]": {"details": "systemic / pathology microscopic / skeletal muscle / atrophy"}, "[15]": {"details": "systemic / pathology microscopic / skeletal muscle / atrophy + systemic / in life observation / body weight / body weight + systemic / in …"}, "[16]": {"details": "systemic / in life observation / body weight / body weight + systemic / in life observation / clinical signs / emesis"}, "[17]": {"details": "group: offspring, developmental / developmental landmark / eye opening / eye opening + developmental / developmental landmark / pinna unfolding / pinna …"}, "[18]": {"details": "group: parental, systemic / in life observation / clinical signs / salivation"}, "[19]": {"details": "group: reproductive, reproductive / offspring survival early / litter size / litter size"}, "[20]": {"details": "systemic / in life observation / body weight / body weight + systemic / in life observation / clinical signs / abnormal movements + systemic…"}},
  "data": [
    {"smiles": "COC(=O)c1ccc(CNS(C)(=O)=O)cc1S(=O)(=O)NC(=O)Nc1nc(OC)cc(OC)n1", "note": "[Mesosulfuron-methyl]", "values": [
      {"measurement": "LEL", "setting": "rat [1]; systemic / clinical chemistry / urea nitrogen / urea", "value": 73.8, "unit": "mg/kg/day"},
      {"measurement": "LOAEL", "setting": "rat [1]; [10]", "value": "> 764", "unit": "mg/kg/day"},
      {"measurement": "NEL", "setting": "rat [1]; [10]", "value": 7.46, "unit": "mg/kg/day"},
      {"measurement": "NOAEL", "setting": "rat [1]; [10]", "value": "≥ 764", "unit": "mg/kg/day"},
      {"measurement": "LOAEL", "setting": "mouse [2]; [11]", "value": "> 1070", "unit": "mg/kg/day"},
      {"measurement": "NEL", "setting": "mouse [2]; [11]", "value": 10.6, "unit": "mg/kg/day"},
      {"measurement": "NOAEL", "setting": "mouse [2]; [11]", "value": "≥ 1070", "unit": "mg/kg/day"},
      {"measurement": "LEL", "setting": "mouse [2]; systemic / clinical chemistry / chloride / chloride + systemic / hematology / leukocyte (wbc) count differential / leukocyte (wbc)", "value": 103, "unit": "mg/kg/day"},
      {"measurement": "LEL", "setting": "dog [3]", "value": 648, "unit": "mg/kg/day"},
      {"measurement": "LOAEL", "setting": "dog [3]", "value": "> 648", "unit": "mg/kg/day"},
      {"measurement": "NEL", "setting": "dog [3]", "value": 348, "unit": "mg/kg/day"},
      {"measurement": "NOAEL", "setting": "dog [3]", "value": "≥ 648", "unit": "mg/kg/day"},
      {"measurement": "LEL", "setting": "dog [4]", "value": 574, "unit": "mg/kg/day"},
      {"measurement": "LOAEL", "setting": "dog [4]", "value": 574, "unit": "mg/kg/day"},
      {"measurement": "NEL", "setting": "dog [4]", "value": 155, "unit": "mg/kg/day"},
      {"measurement": "NOAEL", "setting": "dog [4]", "value": 155, "unit": "mg/kg/day"}
    ]},
    {"smiles": "[Na+].[O-]n1ccccc1=S", "note": "[Sodium pyrithione]", "values": [
      {"measurement": "LEL", "setting": "rat [5]; [12]", "value": 1.5, "unit": "mg/kg/day"},
      {"measurement": "LOAEL", "setting": "rat [5]; [12]", "value": 1.5, "unit": "mg/kg/day"},
      {"measurement": "NEL", "setting": "rat [5]; [13]", "value": 0.5, "unit": "mg/kg/day"},
      {"measurement": "NOAEL", "setting": "rat [5]; [13]", "value": 0.5, "unit": "mg/kg/day"},
      {"measurement": "LOAEL", "setting": "rat [6]; [14]", "value": 15, "unit": "mg/kg/day"},
      {"measurement": "NEL", "setting": "rat [6]; [15]", "value": 5, "unit": "mg/kg/day"},
      {"measurement": "NOAEL", "setting": "rat [6]; [15]", "value": 5, "unit": "mg/kg/day"},
      {"measurement": "LEL", "setting": "rat [6]; systemic / pathology microscopic / skeletal muscle / atrophy + systemic / pathology gross / skeletal muscle / reduced size", "value": 15, "unit": "mg/kg/day"},
      {"measurement": "LEL", "setting": "rat [7]; [14]", "value": 2, "unit": "mg/kg/day"},
      {"measurement": "LOAEL", "setting": "rat [7]; [14]", "value": 2, "unit": "mg/kg/day"},
      {"measurement": "NEL", "setting": "rat [7]; [15]", "value": 0.5, "unit": "mg/kg/day"},
      {"measurement": "NOAEL", "setting": "rat [7]; [15]", "value": 0.5, "unit": "mg/kg/day"},
      {"measurement": "LEL", "setting": "primate; [16]", "value": 5, "unit": "mg/kg/day"},
      {"measurement": "LOAEL", "setting": "primate; [16]", "value": 25, "unit": "mg/kg/day"},
      {"measurement": "NEL", "setting": "primate; [16]", "value": "< 5", "unit": "mg/kg/day"},
      {"measurement": "NOAEL", "setting": "primate; systemic / in life observation / body weight / body weight + systemic / in life observation / clinical signs / emesis + systemic / in life …", "value": 5, "unit": "mg/kg/day"},
      {"measurement": "LEL", "setting": "rat [8]; [17]", "value": 3.5, "unit": "mg/kg/day"},
      {"measurement": "LOAEL", "setting": "rat [8]; [17]", "value": 3.5, "unit": "mg/kg/day"},
      {"measurement": "NEL", "setting": "rat [8]; [17]", "value": 1.5, "unit": "mg/kg/day"},
      {"measurement": "NOAEL", "setting": "rat [8]; [17]", "value": 1.5, "unit": "mg/kg/day"},
      {"measurement": "LEL", "setting": "rat [8]; [18]", "value": 0.5, "unit": "mg/kg/day"},
      {"measurement": "NEL", "setting": "rat [8]; [18]", "value": "< 0.5", "unit": "mg/kg/day"},
      {"measurement": "LOAEL", "setting": "rat [8]; group: parental, systemic / pathology microscopic / skeletal muscle / atrophy", "value": 1.5, "unit": "mg/kg/day"},
      {"measurement": "NOAEL", "setting": "rat [8]; group: parental, systemic / pathology microscopic / skeletal muscle / atrophy + systemic / in life observation / body weight / body weight + systemic / in …", "value": 0.5, "unit": "mg/kg/day"},
      {"measurement": "LOAEL", "setting": "rat [8]; [19]", "value": 3.5, "unit": "mg/kg/day"},
      {"measurement": "NEL", "setting": "rat [8]; [19]", "value": 1.5, "unit": "mg/kg/day"},
      {"measurement": "NOAEL", "setting": "rat [8]; [19]", "value": 1.5, "unit": "mg/kg/day"},
      {"measurement": "LEL", "setting": "rat [8]; group: reproductive, reproductive / offspring survival early / litter size / litter size + reproductive / reproductive performance / fertility / fertility + …", "value": 3.5, "unit": "mg/kg/day"},
      {"measurement": "LEL", "setting": "mouse [9]; [20]", "value": 2, "unit": "mg/kg/day"},
      {"measurement": "NEL", "setting": "mouse [9]; [20]", "value": "< 2", "unit": "mg/kg/day"},
      {"measurement": "LOAEL", "setting": "mouse [9]; systemic / in life observation / mortality / mortality + systemic / pathology microscopic / liver / hypertrophy", "value": 20, "unit": "mg/kg/day"},
      {"measurement": "NOAEL", "setting": "mouse [9]; systemic / in life observation / mortality / mortality + systemic / pathology microscopic / lymph node / lymphoma malignant + systemic / in …", "value": 2, "unit": "mg/kg/day"}
    ]}
  ]
}
